Legend:
[1] = Inhibition of mouse CTLL-2 cells activity at 10 uM incubated for 24 hrs; format: functional
[2] = Cytotoxicity against C57BL/6J mouse peritoneal macrophages assessed as reduction of cell viability at 10 uM incubated for 24 hrs in presence of LPS by MTT assay; format: cell-based, Peritoneal macrophage
Peritoneal macrophage [3] = experiment: Inhibition of LPS-induced NO production in C57BL/6J mouse peritoneal macrophages at 10 uM measured after 24 hrs in presence of LPS by Griess reagent based assay relative to control; format: functional
[4] = Inhibition of mouse CTLL-2 cells activity incubated for 24 hrs; format: functional, cell-based
[5] = Acute toxicity in po dosed Kunming mouse; format: organism-based; conditions: in vivo
[6] = Cytotoxicity against C57BL/6J mouse peritoneal macrophages assessed as reduction of cell viability at 1 uM incubated for 24 hrs in presence of LPS by MTT assay; format: cell-based, Peritoneal macrophage
Peritoneal macrophage [7] = experiment: Inhibition of LPS-induced NO production in C57BL/6J mouse peritoneal macrophages at 1 uM measured after 24 hrs in presence of LPS by Griess reagent based assay relative to control; format: functional

| Structure (SMILES) | inhibition at 10 µM [1] [%] | inhibition at 24 h, 10 µM [2] [%] | inhibition at 10 µM (Peritoneal macrophage [3]) [%] | IC50 [4] [µM] | LD50 [5] [mg/kg] | inhibition at 24 h, 1 µM [6] [%] | inhibition at 1 µM (Peritoneal macrophage [7]) [%] |
| --- | --- | --- | --- | --- | --- | --- | --- |
| CCCCCCCCCCCCCC(=O)Oc1c(OC)cc(C=O)c2c1[C@@]13CCN(C)[C@@H](C2)[C@H]1C=C(OC)C(=O)C3 | 90.8 | 0.5 | 33.9 | 3.7 | – | – | – |
| C/C=C/C=C/C(=O)Oc1c(OC)cc(C=O)c2c1[C@@]13CCN(C)[C@@H](C2)[C@H]1C=C(OC)C(=O)C3 | 14 | 1.4 | 46 | – | – | – | – |
| CCCCCCCCCCCCCC(=O)OCc1cc(OC)c(OC(=O)CCCCCCCCCCCCC)c2c1C[C@H]1[C@H]3C=C(OC)C(=O)C[C@@]23CCN1C | -0.9 | 2.5 | 10.1 | – | – | – | – |
| CCCCCCCCCCCCCCCC(=O)Oc1c(OC)ccc2c1[C@@]13CCN(C)[C@@H](C2)[C@H]1C[C@@H](OC)C(=O)C3 | 45.3 | 1.7 | 93.5 | – | – | – | – |
| C/C=C/C=C/C(=O)OCc1cc(OC)c(OC(=O)/C=C/C=C/C)c2c1C[C@H]1[C@H]3C=C(OC)C(=O)C[C@@]23CCN1C | 6.2 | 6.1 | 90.8 | – | – | – | – |
| C=CCCCCCCCCC(=O)Oc1c(OC)ccc2c1[C@@]13CCN(C)[C@@H](C2)[C@H]1C=C(OC)C(=O)C3 | 52.8 | 8.8 | 94 | 7.6 | – | – | – |
| COC1=C[C@@H]2[C@@H]3Cc4ccc(OC)c(OC(=O)c5cccnc5)c4[C@]2(CCN3C)CC1=O | 3.2 | 0.8 | 14 | – | – | – | – |
| CCCCCCCCCCCCCC(=O)Oc1c(OC)ccc2c1[C@@]13CCN(C)[C@@H](C2)[C@H]1C[C@@H](OC)C(=O)C3 | 98.3 | 4.6 | 46.2 | 6.7 | – | – | – |
| COC1=C[C@@H]2[C@@H]3Cc4c(C=O)cc(OC)c(OC(C)=O)c4[C@]2(CCN3C)CC1=O | 10.3 | 0.2 | 0.6 | – | – | – | – |
| COC1=C[C@@H]2[C@@H]3Cc4ccc(OC)c(OC(=O)/C=C/c5ccccc5)c4[C@]2(CCN3C)CC1=O | 5.4 | -3.3 | 61.1 | – | – | – | – |
| CCCCCCCCCCCC(=O)OCc1cc(OC)c(OC(=O)CCCCCCCCCCC)c2c1C[C@H]1[C@H]3C=C(OC)C(=O)C[C@@]23CCN1C | 6.8 | 6.2 | 3.4 | – | – | – | – |
| COC1=C[C@@H]2[C@@H]3Cc4ccc(OC)c(O)c4[C@]2(CCN3C)CC1=O [SINOMENINE] | 2.8 | 1.3 | 7.5 | – | 1100 | – | – |
| C=CCCCCCCCCC(=O)Oc1c(OC)cc(C=O)c2c1[C@@]13CCN(C)[C@@H](C2)[C@H]1C=C(OC)C(=O)C3 | 23.4 | 1.3 | 11.6 | – | – | – | – |
| COc1ccc2c(c1OC(=O)c1cccnc1)[C@@]13CCN(C)[C@@H](C2)[C@H]1C[C@@H](OC)C(=O)C3 | 9.1 | 3.1 | 11.2 | – | – | – | – |
| COC1=C[C@@H]2[C@@H]3Cc4c(C=O)cc(OC)c(O)c4[C@]2(CCN3C)CC1=O | 3.5 | 2.5 | 4.2 | – | – | – | – |
| CCCCCCCCCCCC(=O)Oc1c(OC)cc(C=O)c2c1[C@@]13CCN(C)[C@@H](C2)[C@H]1C=C(OC)C(=O)C3 | 25.2 | 0 | 2.2 | – | – | – | – |
| COc1ccc2c(c1OC(C)=O)[C@@]13CCN(C)[C@@H](C2)[C@H]1C[C@@H](OC)C(=O)C3 | 12.5 | 3.2 | 5.6 | – | – | – | – |

| Structure (SMILES) | inhibition at 10 µM [1] [%] | inhibition at 24 h, 10 µM [2] [%] | inhibition at 10 µM (Peritoneal macrophage [3]) [%] | IC50 [4] [µM] | LD50 [5] [mg/kg] | inhibition at 24 h, 1 µM [6] [%] | inhibition at 1 µM (Peritoneal macrophage [7]) [%] |
| --- | --- | --- | --- | --- | --- | --- | --- |
| CCCCCCCCCCCCCC(=O)Oc1c(OC)ccc2c1[C@@]13CCN(C)[C@@H](C2)[C@H]1C=C(OC)C(=O)C3 | 88.1 | 2.7 | 4.3 | 4.3 | – | – | – |
| C[C@@H]1C[C@H]2[C@@H]3CCC4=CC(=O)C=C[C@]4(C)[C@@]3(F)[C@@H](O)C[C@]2(C)[C@@]1(O)C(=O)CO [DEXAMETHASONE] | – | – | – | – | – | 17 | 62.8 |
| CCCCCCCCCCCC(=O)Oc1c(OC)ccc2c1[C@@]13CCN(C)[C@@H](C2)[C@H]1C=C(OC)C(=O)C3 | 98.7 | 4.4 | 42.7 | 3.8 | – | – | – |
| CCCCCCCC/C=C/CCCCCCCCCCCC(=O)Oc1c(OC)cc(C=O)c2c1[C@@]13CCN(C)[C@@H](C2)[C@H]1C=C(OC)C(=O)C3 | 29.6 | 0.5 | 18.6 | – | – | – | – |
| COC1=C[C@@H]2[C@@H]3Cc4c(C=O)cc(OC)c(OC(=O)/C=C/c5ccccc5)c4[C@]2(CCN3C)CC1=O | 4.7 | 0.6 | 21.6 | – | – | – | – |
| C/C=C/C[C@@H](C)[C@@H](O)[C@H]1C(=O)N[C@@H](CC)C(=O)N(C)CC(=O)N(C)[C@@H](CC(C)C)C(=O)N[C@@H](C(C)C)C(=O)N(C)[C@@H](CC(C)C)C(=O)N[C@@H](C)C(=O)N[C@H](C)C(=O)N(C)[C@@H](CC(C)C)C(=O)N(C)[C@@H](CC(C)C)C(=O)N(C)[C@@H](C(C)C)C(=O)N1C [CYCLOSPORINE] | 96.8 | – | – | – | – | – | – |
| CCCCCCCCCCCCCCCC(=O)OCc1cc(OC)c(OC(=O)CCCCCCCCCCCCCCC)c2c1C[C@H]1[C@H]3C=C(OC)C(=O)C[C@@]23CCN1C | 20.5 | 5.3 | -2.4 | – | – | – | – |
| CCCCCCCCCCCC(=O)Oc1c(OC)ccc2c1[C@@]13CCN(C)[C@@H](C2)[C@H]1C[C@@H](OC)C(=O)C3 | 96.7 | 3.1 | 5 | 4.4 | – | – | – |
| C/C=C/C=C/C(=O)Oc1c(OC)ccc2c1[C@@]13CCN(C)[C@@H](C2)[C@H]1C=C(OC)C(=O)C3 | 14.3 | 0.3 | 46.9 | – | – | – | – |
| C/C=C/C=C/C(=O)Oc1c(OC)ccc2c1[C@@]13CCN(C)[C@@H](C2)[C@H]1C[C@@H](OC)C(=O)C3 | 1.1 | 5.1 | 40.7 | – | – | – | – |
| CCCCCCCC/C=C/CCCCCCCCCCCC(=O)OCc1cc(OC)c(OC(=O)CCCCCCCCCCC/C=C/CCCCCCCC)c2c1C[C@H]1[C@H]3C=C(OC)C(=O)C[C@@]23CCN1C | 6.7 | 0.2 | 1.1 | – | – | – | – |
| C=CCCCCCCCCC(=O)OCc1cc(OC)c(OC(=O)CCCCCCCCC=C)c2c1C[C@H]1[C@H]3C=C(OC)C(=O)C[C@@]23CCN1C | 33.9 | 9.3 | -0.9 | – | – | – | – |
| CCCCCCCCCCCCCCCC(=O)Oc1c(OC)cc(C=O)c2c1[C@@]13CCN(C)[C@@H](C2)[C@H]1C=C(OC)C(=O)C3 | 32.2 | -1.9 | 21 | – | – | – | – |
| COc1ccc2c(c1O)[C@@]13CCN(C)[C@@H](C2)[C@H]1C[C@@H](OC)C(=O)C3 | 5.8 | 6.5 | 6.5 | – | – | – | – |
| COC1=C[C@@H]2[C@@H]3Cc4c(CO)cc(OC)c(O)c4[C@]2(CCN3C)CC1=O | 6.1 | 1.2 | 3.6 | – | – | – | – |
| COc1ccc2c(c1OC(=O)/C=C/c1ccccc1)[C@@]13CCN(C)[C@@H](C2)[C@H]1C[C@@H](OC)C(=O)C3 | 11.6 | 4.8 | 57.4 | – | – | – | – |
| CCCCCCCC/C=C/CCCCCCCCCCCC(=O)Oc1c(OC)ccc2c1[C@@]13CCN(C)[C@@H](C2)[C@H]1C=C(OC)C(=O)C3 | 32.6 | 0.4 | 3.5 | – | – | – | – |

— ChEMBL document CHEMBL4828748, “Design, synthesis, and pharmacological evaluation of sinomenine derivatives on rings A and C: Novel compounds screening for aplastic anemia targeting on cytotoxic T lymphocyte” (Eur J Med Chem, 2021)
